Reference: patent US9464060B2, “Compounds” (TAKEDA PHARMACEUTICAL COMPANY LIMITED, priority 2013, dated 2016)

How the values were obtained:
LPA5 receptor = LPA5 receptor (Homo sapiens (Human), UniProt Q9H1C0); assay: In vitro LPA5 receptor assay (LPA-driven intracellular calcium release, FLIPR); assay type: cell-based; conditions: RH7777 cells expressing human LPA5 receptors; LPA at EC90
Description: In Vitro LPA5 Receptor Assay
(§1) Engagement of the LPA5 receptor by its ligand, oleoyl-L-α-lysophosphatidic acid (LPA), leads to the release of intracellular stores of calcium into the cytoplasm mediated through a Gq-driven increase in inositol triphosphate (IP3) levels. Gq is a heterotrimeric G protein subunit that activates phospholipase C.
The ability of test compounds to prevent LPA-driven intracellular release of stored calcium from RH7777 cells expressing human LPA5 receptors was assayed by stimulating the cells with LPA in the presence of various test compounds to measure the test compounds'antagonism, i.e. activity in vitro.
(§2) Approximately 10,000 cells in normal culture medium (Minimal Essential Media, 10% Foetal Calf Serum) were dispensed per assay well in a black clear bottom poly-D-lysine coated 384 well plate (Corning). Cells were allowed to settle for thirty minutes at room temperature before being incubated overnight at 37° C., 5% CO2. Sixteen to twenty hours after dispensing, the cells were loaded with a calcium-sensitive fluorescent dye by replacing the culture medium with assay buffer (1× Hanks buffered saline, 25 mM HEPES, 0.1% w/v fatty acid free BSA (bovine serum albumin), pH7.4) containing 1.25 mM probenecid and 1× Calcium 5 Reagent (Molecular Devices). Cells were incubated at 37° C. for one hour to allow for dye uptake.
(§3) To test for antagonist activity, test compounds at a final concentration range between 0.32 nM-10 μM (diluted in assay buffer) were added to the assay wells and allowed to incubate for fifteen minutes. […] Ligand-dependent changes in intracellular calcium levels were determined by measuring changes in fluorescence of the dye over […] following excitation over […].

human LPA1 receptors = human LPA1 receptors (Homo sapiens (Human), UniProt Q92633); assay: In vitro LPA1 receptor assay (LPA-driven intracellular calcium release, FLIPR); assay type: cell-based; conditions: RH7777 cells expressing human LPA1 receptors; LPA at EC80
human LPA1 receptors, sequence (Q92633 whole entry): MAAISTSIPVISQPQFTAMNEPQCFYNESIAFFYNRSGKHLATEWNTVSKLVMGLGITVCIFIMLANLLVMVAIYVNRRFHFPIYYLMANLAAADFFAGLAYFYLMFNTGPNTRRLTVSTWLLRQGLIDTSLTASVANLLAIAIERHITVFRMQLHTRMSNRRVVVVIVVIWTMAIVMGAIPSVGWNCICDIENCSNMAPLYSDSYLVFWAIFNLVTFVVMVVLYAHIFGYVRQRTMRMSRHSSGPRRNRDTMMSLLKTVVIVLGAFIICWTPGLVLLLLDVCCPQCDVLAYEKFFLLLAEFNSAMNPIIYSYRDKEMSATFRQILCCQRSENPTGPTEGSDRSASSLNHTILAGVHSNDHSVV
Description: In Vitro LPA1 Receptor Assay
as §1, with “LPA1” for “LPA5”
The ability of test compounds to prevent LPA-driven intracellular release of stored calcium from RH7777 cells expressing human LPA1 receptors was assayed by stimulating the cells with LPA in the presence of various test compounds to measure the test compounds' antagonism, i.e. activity in vitro.
as §2, with “(Dulbecco's Modified Eagle” for “(Minimal Essential”, “collagen” for “poly-D-lysine”, “(Beckton Dickinson).” for “(Corning).”
as §3, with “twenty five” for “fifteen”

LPA5 receptor, sequence (Q9H1C0 whole entry): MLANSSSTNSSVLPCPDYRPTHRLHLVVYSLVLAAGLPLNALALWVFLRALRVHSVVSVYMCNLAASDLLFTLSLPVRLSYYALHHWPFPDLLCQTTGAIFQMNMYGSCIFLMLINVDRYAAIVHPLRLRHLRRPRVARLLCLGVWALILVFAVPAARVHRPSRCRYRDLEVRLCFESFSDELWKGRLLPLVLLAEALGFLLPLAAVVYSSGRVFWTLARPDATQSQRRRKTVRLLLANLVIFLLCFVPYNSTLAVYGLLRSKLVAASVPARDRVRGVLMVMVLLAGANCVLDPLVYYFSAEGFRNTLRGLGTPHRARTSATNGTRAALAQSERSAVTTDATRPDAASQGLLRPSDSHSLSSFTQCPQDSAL

| Structure (SMILES) | IC50 (LPA5 receptor) [nM] | IC50 (human LPA1 receptors) [nM] |
| --- | --- | --- |
| CCCCN(Cc1ccc(C(=O)O)cc1)C(=O)c1ccc(Oc2ccccc2OC)cc1 [Example 65, 4-((N-Butyl-4-(2-methoxyphenoxy)benzamido)methyl)benzoic acid] | 4 | 5 |
| O=C(O)c1ccc(CN(CCc2ccccc2)C(=O)c2ccc(Oc3ccccc3Cl)cc2)cc1 [Example 36, 4-((4-(2-Chlorophenoxy)-N-phenethylbenzamido)methyl)benzoic acid] | 24 | 24 |
| Cc1cccc(C)c1Oc1ccc(C(=O)N(CCc2ccccc2)Cc2ccc(C(=O)O)cc2)cc1 [Example 47, 4-((4-(2,6-Dimethylphenoxy)-N-phenethylbenzamido)methyl)benzoic acid] | 11 | 22 |
| O=C(O)c1ccc(CN(CC(F)F)C(=O)c2ccc(Oc3ccccc3Cl)cc2)cc1 [Example 78, 4-((4-(2-Chlorophenoxy)-N-(2,2-difluoroethyl)benzamido)methyl)benzoic acid] | 170 | 390 |
| O=C(O)c1ccc(CN(C[C@@H]2C[C@H]2c2ccccc2)C(=O)c2ccc(Oc3ccccc3F)cc2)cc1 (relative stereo) [Example 18, 4-((4-(2-Fluorophenoxy)-N-((trans-2-phenylcyclopropyl)methyl)-benzamido)methyl)benzoic acid] | 2 | 1 |
| O=C(O)c1ccc(CN(CC2CC2)C(=O)c2ncc(Oc3ccccc3F)cn2)cc1 [Example 83, 4-((N-(Cyclopropylmethyl)-5-(2-fluorophenoxy)pyrimidine-2-carboxamido)methyl)benzoic acid] | 350 | 540 |
| COc1ccc(F)cc1Oc1ccc(C(=O)N(Cc2ccc(C(=O)O)cc2)CC2CC2)cc1 [Example 79, 4-((N-(Cyclopropylmethyl)-4-(5-fluoro-2-methoxyphenoxy)benzamido)methyl)benzoic acid] | 68 | 94 |
| COc1ccccc1Oc1ccc(C(=O)N(CCCc2ccccc2)Cc2ccc(C(=O)O)cc2)cc1 [Example 32, 4-((4-(2-Methoxyphenoxy)-N-(3-phenylpropyl)benzamido)-methyl)benzoic acid] | 0.4 | 2 |
| CCCCN(Cc1ccc(C(=O)O)cc1)C(=O)c1ccc(Oc2ccccc2F)cc1 [Example 75, 4-((N-Butyl-4-(2-fluorophenoxy)benzamido)methyl)benzoic acid] | 22 | 31 |
| CCN(Cc1ccc(C(=O)O)cc1)C(=O)c1ccc(Oc2ccccc2C)cc1 [Example 73, 4-((N-Ethyl-4-(o-tolyloxy)benzamido)methyl)benzoic acid] | 890 | 120 |
| COc1cccc(F)c1Oc1ccc(C(=O)N(Cc2ccc(C(=O)O)cc2)CC2CC2)cc1 [Example 67, 4-((N-(Cyclopropylmethyl)-4-(2-fluoro-6-methoxyphenoxy)benzamido)methyl)benzoic acid] | 5 | 7 |
| O=C(O)c1ccc(CN(CC(F)(F)F)C(=O)c2ccc(Oc3ccccc3F)cc2)cc1 [Example 3, 4-((4-(2-Fluorophenoxy)-N-(2,2,2-trifluoroethyl)benzamido)-methyl)benzoic acid] | 43 | 35 |

Results, then the compound that gave them:

| IC50 (LPA5 receptor) [nM] | IC50 (human LPA1 receptors) [nM] | Structure (SMILES) |
| --- | --- | --- |
| 8 | 4 | COc1ccccc1Oc1ccc(C(=O)N(Cc2ccc(C(=O)O)cc2)CC(F)(F)F)cc1 [Example 61, 4-((4-(2-Methoxyphenoxy)-N-(2,2,2-trifluoroethyl)benzamido)methyl)benzoic acid] |
| 91 | 170 | COc1ccccc1Oc1cnc(C(=O)N(Cc2ccc(C(=O)O)cc2)CC2CC2)nc1 [Example 84, 4-((N-(Cyclopropylmethyl)-5-(2-methoxyphenoxy)pyrimidine-2-carboxamido)methyl)benzoic acid] |
| 10 | 13 | COc1cc(F)ccc1Oc1ccc(C(=O)N(Cc2ccc(C(=O)O)cc2)CC2CC2)cc1 [Example 68, 4-((N-(Cyclopropylmethyl)-4-(4-fluoro-2-methoxyphenoxy)benzamido)methyl)benzoic acid] |
| 120 | 180 | CCCN(Cc1ccc(C(=O)O)cc1)C(=O)c1ncc(Oc2ccccc2OC)cn1 [Example 85, 4-((5-(2-Methoxyphenoxy)-N-propylpyrimidine-2-carboxamido)methyl)benzoic acid] |
| 140 | 36 | O=C(O)c1ccc(CN(CCC2CC2)C(=O)c2ccc(Oc3c(F)cccc3F)cc2)cc1 [Example 38, 4-((N-(2-Cyclopropylethyl)-4-(2,6-difluorophenoxy)benzamido)-methyl)benzoic acid] |
| 74 | 86 | O=C(O)c1ccc(CN(CC2CC2)C(=O)c2ccc(Oc3ccccc3F)cn2)cc1 [Example 77, 4-((N-(Cyclopropylmethyl)-5-(2-fluorophenoxy)picolinamido)methyl)benzoic acid] |
| 83 | 59 | O=C(O)c1ccc(CN(CCC(F)(F)F)C(=O)c2ccc(Oc3ccccc3F)cc2)cc1 [Example 71, 4-((4-(2-Fluorophenoxy)-N-(3,3,3-trifluoropropyl)benzamido)methyl)benzoic acid] |
| 60 | 33 | CCCN(Cc1ccc(C(=O)O)cc1)C(=O)c1ccc(Oc2ccccc2F)cc1 [Example 60, 4-((4-(2-Fluorophenoxy)-N-propylbenzamido)methyl)benzoic acid] |
| 3 | 4 | COc1cccc(CN(Cc2ccc(C(=O)O)cc2)C(=O)c2ccc(Oc3ccccc3F)cc2)c1 [Example 13, 4-((4-(2-Fluorophenoxy)-N-(3-methoxybenzyl)benzamido)-methyl)benzoic acid] |
| 28 | 25 | O=C(O)c1ccc(CN(CC2CC2)C(=O)c2ccc(Oc3c(F)cccc3F)cc2)cc1 [Example 37, 4-((N-(Cyclopropylmethyl)-4-(2,6-difluorophenoxy)benzamido)-methyl)benzoic acid] |
| 10 | 7 | COc1ccccc1Oc1ccc(C(=O)N(Cc2ccc(C(=O)O)cc2)CC(C)(F)F)cc1 [Example 63, 4-((N-(2,2-Difluoropropyl)-4-(2-methoxyphenoxy)-benzamido)methyl)benzoic acid] |
| 5 | 4 | COc1ccccc1Oc1ccc(C(=O)N(Cc2ccc(C(=O)O)cc2)CC2CC2)cc1 [Example 31, 4-((N-(Cyclopropylmethyl)-4-(2-methoxyphenoxy)benzamido)-methyl)benzoic acid] |
| 9 | 7 | O=C(O)c1ccc(CN(C[C@@H](O)Cc2ccccc2)C(=O)c2ccc(Oc3ccccc3F)cc2)cc1 [Example 19, (S)-4-((4-(2-Fluorophenoxy)-N-(2-hydroxy-3-phenylpropyl)benzamido)methyl)benzoic acid] |
| 140 | 47 | Cc1ccccc1Oc1ccc(C(=O)N(Cc2ccc(C(=O)O)cc2)CC(F)(F)F)cc1 [Example 70, 4-((4-(o-Tolyloxy)-N-(2,2,2-trifluoroethyl)benzamido)methyl)benzoic acid] |
| 9 | 5 | CCCN(Cc1ccc(C(=O)O)cc1)C(=O)c1ccc(Oc2ccccc2OC)cc1 [Example 62, 4-((4-(2-Methoxyphenoxy)-N-propylbenzamido)methyl)benzoic acid] |
| 26 | 27 | O=C(O)c1ccc(CN(CC2CC2)C(=O)c2ccc(Oc3ccccc3F)cc2F)cc1 [Example 54, 4-((N-(Cyclopropylmethyl)-2-fluoro-4-(2-fluorophenoxy)-benzamido)methyl)benzoic acid] |
| 98 | 40 | CC(F)(F)CN(Cc1ccc(C(=O)O)cc1)C(=O)c1ccc(Oc2ccccc2F)cc1 [Example 74, 4-((N-(2,2-Difluoropropyl)-4-(2-fluorophenoxy)benzamido)methyl)benzoic acid] |
